# Test results from US20220071971A1, “MACROCYCLIC COMPOUNDS AND THEIR USE IN THE TREATMENT OF DISEASE” (NOVARTIS AG, priority 2018, published 2022).
# Biological target: T1, delF508-CFTR (Homo sapiens, UniProt P13569, DEL508-508)
# T1 construct: expressed in transfected cells
# Assay: Measurement of delF508-CFTR-HRP surface expression in CFBE41o- cells
# Format: cell-based
# Conditions: for EC50: HRP-tagged delF508-CFTR surface expression, CFBE41o- cells, 24 h with compound, 10-point curve, highest concentration 10 μM; for Emax: CFBE41o-, efficacy relative to reference compound 3-(6-(1-(2,2-difluorobenzo[d][1,3]dioxol-5-yl)cyclopropane-1-carboxamido)-3-methylpyridin-2-yl)benzoic acid, read-out: DelF508-CFTR-HRP Amax %
# Description: Measurement of deIF508-CFTR-HRP Surface Expression in CFBE41o-Cells
# This assay quantifies the cell surface expressions of the mutant CFTR channel using an extracellular HRP tag.
# A cellular assay was developed to measure surface expression of horseradish peroxidase (HRP) tagged delF508-CFTR in the human bronchial epithelial immortalized CFBE41o-cell line (Phuan, P. W., et al, (2014) Molecular Pharmacology 86:42-51). Specifically, the HRP sequence was inserted into the fourth extracellular loop of delF508-CFTR and stably expressed in CFBE41o-cells. Cells were seeded in 384 well plate at a density of 5000 cells/well and incubated at 37° C. for 12 to 24 hours in medium (Gibco MEM #11095, 10% FBS, 10 mM HEPES, […], 200 μg/mL G418, 3 μg/mL Puromycin). The delF508-CFTR-HRP expression was induced with 500 ng/mL doxycycline (Sigma D-9891, dissolved in H2O and sterile filtered) in medium and the cells were incubated at 37° C. for 48 h. Old medium was removed and fresh medium was added containing 500 ng/mL doxycycline and unknown test compound at required test concentration in DMSO, not exceeding 0.5% final DMSO concentration. The highest concentration tested was 10 μM with a 10-point concentration response curve using a 3-fold dilution. After addition of compounds, the cells were incubated for 24 h at 37° C. On the final day, cells were washed four times in PBS containing 1 mM MgCl2 and 0.1 mM CaCl2. HRP-Substrate (SuperSignal ELISA Pico, Fisher #37069) 20 μl/well was added and the luminescence signal was determined (Viewlux, Perkin Elmer). Light was emitted upon addition of exogenous HRP-Substrate only when delF508-CFTR-HRP reached the cell surface and the HRP tag was accessible to the HRP-Substrate (note: HRP-Substrate cannot cross the lipid bilayer to reach delF508-CFTR-HRP misfolded within the cell).
# The median activity for the lowest concentration of the compounds on each assay plate was calculated and this value was used to normalize the signal for each well on the respective plate. Three replicates at each concentrations for every compound were run to determine one EC50. The median value was determined and used to calculate compound activities as described below. Effective half maximal values (EC50) were calculated for each compound by performing logistic regression on measured dose-response data points using the equation: […]
# where “Y” is the observed activity, “Bottom” is the lowest observed value, “Top” is the highest observed value, and the “Hill coefficient” gives the largest absolute value of the slope. The curve fitting is carried out by a curve fitting program implemented at GNF using Matlab (Mathworks).
# The dose response curves also were used to calculate Fold Change (FC) using the equation: […]
# Compound efficacy relative to the reference compound 3-(6-(1-(2,2-difluorobenzo[d][1,3]dioxol-5-yl)cyclopropane-1-carboxamido)-3-methylpyridin-2-yl)benzoic acid was determined using the following formula: […]
# T1 sequence (P13569 with tags, fused parts or gaps DEL508-508): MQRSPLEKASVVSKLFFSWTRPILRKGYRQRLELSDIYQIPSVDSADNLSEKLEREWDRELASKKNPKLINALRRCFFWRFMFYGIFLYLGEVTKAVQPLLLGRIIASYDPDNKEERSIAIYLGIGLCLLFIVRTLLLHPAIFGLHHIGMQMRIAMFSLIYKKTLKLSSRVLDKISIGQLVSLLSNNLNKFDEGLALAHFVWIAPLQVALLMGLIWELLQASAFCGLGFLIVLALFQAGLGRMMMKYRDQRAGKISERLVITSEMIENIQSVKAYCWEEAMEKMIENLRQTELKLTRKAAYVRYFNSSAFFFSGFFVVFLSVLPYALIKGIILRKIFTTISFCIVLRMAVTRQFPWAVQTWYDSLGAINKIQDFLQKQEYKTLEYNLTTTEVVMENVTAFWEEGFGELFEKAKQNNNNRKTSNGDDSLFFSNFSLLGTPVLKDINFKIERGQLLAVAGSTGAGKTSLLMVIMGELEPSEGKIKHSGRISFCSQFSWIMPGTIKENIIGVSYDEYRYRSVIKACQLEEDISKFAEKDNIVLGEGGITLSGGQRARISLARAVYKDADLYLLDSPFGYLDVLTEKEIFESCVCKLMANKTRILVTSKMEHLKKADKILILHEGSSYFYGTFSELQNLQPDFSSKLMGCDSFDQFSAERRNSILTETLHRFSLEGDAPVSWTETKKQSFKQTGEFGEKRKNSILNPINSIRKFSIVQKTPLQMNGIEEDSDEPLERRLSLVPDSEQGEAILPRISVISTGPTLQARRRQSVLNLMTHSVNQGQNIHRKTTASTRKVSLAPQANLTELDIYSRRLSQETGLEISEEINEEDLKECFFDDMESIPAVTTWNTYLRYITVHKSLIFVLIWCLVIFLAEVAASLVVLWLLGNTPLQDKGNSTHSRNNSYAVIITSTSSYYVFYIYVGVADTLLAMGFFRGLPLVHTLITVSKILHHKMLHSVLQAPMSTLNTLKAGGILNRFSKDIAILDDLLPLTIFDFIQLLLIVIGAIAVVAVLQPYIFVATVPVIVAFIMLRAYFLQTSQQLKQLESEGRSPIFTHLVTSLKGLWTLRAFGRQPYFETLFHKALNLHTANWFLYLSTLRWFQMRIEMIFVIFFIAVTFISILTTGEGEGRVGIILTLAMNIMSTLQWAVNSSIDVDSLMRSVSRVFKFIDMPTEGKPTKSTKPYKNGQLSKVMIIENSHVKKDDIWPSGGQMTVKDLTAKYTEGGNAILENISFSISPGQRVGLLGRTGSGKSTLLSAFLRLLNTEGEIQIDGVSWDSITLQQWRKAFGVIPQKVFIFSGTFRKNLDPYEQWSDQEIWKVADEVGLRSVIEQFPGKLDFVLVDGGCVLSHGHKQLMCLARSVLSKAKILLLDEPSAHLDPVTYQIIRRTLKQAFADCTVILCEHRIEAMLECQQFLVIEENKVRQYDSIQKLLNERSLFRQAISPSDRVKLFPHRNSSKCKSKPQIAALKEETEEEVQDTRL
compound,measurement,value
"O=S1(=O)Nc2ccc(C(F)(F)F)c(n2)-c2ccccc2CCCCCCCN(CCCO)c2cccc1n2 [Compound 39, 6-(3-hydroxypropyl)-2^3-(trifluoromethyl)-4-thia-3,6-diaza-2,5(2,6)-dipyridina-1(1,2)-benzenacyclotridecaphane 4,4-dioxide]",EC50,233 nM
"O=S1(=O)Nc2ccc(C(F)(F)F)c(n2)-c2ccccc2CCCCCCCN(CCCCO)c2cccc1n2 [Compound 40, 6-(4-hydroxybutyl)-2^3-(trifluoromethyl)-4-thia-3,6-diaza-2,5(2,6)-dipyridina-1(1,2)-benzenacyclotridecaphane 4,4-dioxide]",EC50,220 nM
"O=S1(=O)Nc2ccc(C(F)(F)F)c(n2)-c2ccccc2CCCCCCCN(CCCCCO)c2cccc1n2 [Compound 41, 6-(5-hydroxypentyl)-2^3-(trifluoromethyl)-4-thia-3,6-diaza-2,5(2,6)-dipyridina-1(1,2)-benzenacyclotridecaphane 4,4-dioxide]",EC50,187 nM
"O=S1(=O)Nc2ccc(C(F)(F)F)c(n2)-c2ccccc2CCCCCCCCCN(CCCCO)c2cccc1n2 [Compound 42, 6-(4-hydroxybutyl)-2^3-(trifluoromethyl)-4-thia-3,6-diaza-2,5(2,6)-dipyridina-1(1,2)-benzenacyclopentadecaphane 4,4-dioxide]",EC50,219 nM
"O=S1(=O)Nc2ccc(C(F)(F)F)c(n2)-c2ccccc2CCCCCCCCN(CCCO)c2cccc1n2 [Compound 43, 6-(3-hydroxypropyl)-2^3-(trifluoromethyl)-4-thia-3,6-diaza-2,5(2,6)-dipyridina-1(1,2)-benzenacyclotetradecaphane 4,4-dioxide]",EC50,255 nM
"O=S1(=O)Nc2ccc(C(F)(F)F)c(n2)-c2ccccc2CCCCCCCCN(CCCCO)c2cccc1n2 [Compound 44, 6-(4-hydroxybutyl)-2^3-(trifluoromethyl)-4-thia-3,6-diaza-2,5(2,6)-dipyridina-1(1,2)-benzenacyclotetradecaphane 4,4-dioxide]",EC50,159 nM
"O=S1(=O)Nc2ccc(C(F)(F)F)c(n2)-c2ccccc2CCCCCCCCCN(CCCO)c2cccc1n2 [Compound 45, 6-(3-hydroxypropyl)-2^3-(trifluoromethyl)-4-thia-3,6-diaza-2,5(2,6)-dipyridina-1(1,2)-benzenacyclopentadecaphane 4,4-dioxide]",EC50,361 nM
"COC(=O)CN1CCCCCCc2ccccc2-c2nc(ccc2C(F)(F)F)NS(=O)(=O)c2cccc1n2 [Compound 61, methyl 2-(4,4-dioxido-2^3-(trifluoromethyl)-4-thia-3,6-diaza-2,5(2,6)-dipyridina-1(1,2)-benzenacyclododecaphane-6-yl)acetate]",EC50,368 nM
"O=C(O)CCN1CCCCCCCc2ccccc2-c2nc(ccc2C(F)(F)F)NS(=O)(=O)c2cccc1n2 [Compound 62, 3-(4,4-dioxido-2^3-(trifluoromethyl)-4-thia-3,6-diaza-2,5(2,6)-dipyridina-1(1,2)-benzenacyclotridecaphane-6-yl)propanoic acid]",EC50,403 nM
"O=C(O)CCCN1CCCCOc2ccc(F)cc2-c2nc(ccc2C(F)(F)F)NS(=O)(=O)c2cccc1n2 [Compound 63, 4-(1^5-fluoro-4,4-dioxido-2^3-(trifluoromethyl)-11-oxa-4-thia-3,6-diaza-2,5(2,6)-dipyridina-1(1,2)-benzenacycloundecaphane-6-yl)butanoic acid]",EC50,1800 nM
"O=C(O)CCOCCN1CCCCCc2ccccc2-c2nc(ccc2C(F)(F)F)NS(=O)(=O)c2cccc1n2 [Compound 64, 3-(2-(4,4-dioxido-2^3-(trifluoromethyl)-4-thia-3,6-diaza-2,5(2,6)-dipyridina-1(1,2)-benzenacycloundecaphane-6-yl)ethoxy)propanoic acid]",Emax,862%
same,EC50,913 nM
"O=C(O)CCCN1CCCCCCCc2ccccc2-c2nc(ccc2C(F)(F)F)NS(=O)(=O)c2cccc1n2 [Compound 65, 4-(4,4-dioxido-2^3-(trifluoromethyl)-4-thia-3,6-diaza-2,5(2,6)-dipyridina-1(1,2)-benzenacyclotridecaphane-6-yl)butanoic acid]",EC50,280 nM
"O=C(O)CCCN1CCCCCCCCCc2ccccc2-c2nc(ccc2C(F)(F)F)NS(=O)(=O)c2cccc1n2 [Compound 66, 4-(4,4-dioxido-2^3-(trifluoromethyl)-4-thia-3,6-diaza-2,5(2,6)-dipyridina-1(1,2)-benzenacyclopentadecaphane-6-yl)butanoic acid]",EC50,224 nM
"O=C(O)CCCN1CCCCCc2ccccc2-c2nc(ccc2C(F)(F)F)NS(=O)(=O)c2cccc1n2 [Compound 67, 4-(4,4-dioxido-2^3-(trifluoromethyl)-4-thia-3,6-diaza-2,5(2,6)-dipyridina-1(1,2)-benzenacycloundecaphane-6-yl)butanoic acid]",EC50,608 nM
"O=C(O)CCCN1CCCCCCc2ccc(F)cc2-c2nc(ccc2C(F)(F)F)NS(=O)(=O)c2cccc1n2 [Compound 68, 4-(1^5-fluoro-4,4-dioxido-2^3-(trifluoromethyl)-4-thia-3,6-diaza-2,5(2,6)-dipyridina-1(1,2)-benzenacyclododecaphane-6-yl)butanoic acid]",EC50,418 nM
"O=C(O)CCN1CCCCCCCCc2ccccc2-c2nc(ccc2C(F)(F)F)NS(=O)(=O)c2cccc1n2 [Compound 69, 3-(4,4-dioxido-2^3-(trifluoromethyl)-4-thia-3,6-diaza-2,5(2,6)-dipyridina-1(1,2)-benzenacyclotetradecaphane-6-yl)propanoic acid]",EC50,351 nM
"O=C(O)CCCCCN1CCCCCc2ccccc2-c2nc(ccc2C(F)(F)F)NS(=O)(=O)c2cccc1n2 [Compound 70, 6-(4,4-dioxido-2^3-(trifluoromethyl)-4-thia-3,6-diaza-2,5(2,6)-dipyridina-1(1,2)-benzenacycloundecaphane-6-yl)hexanoic acid]",Emax,843%
same,EC50,373 nM
"O=C(O)CCCN1CCCCCCCCc2ccccc2-c2nc(ccc2C(F)(F)F)NS(=O)(=O)c2cccc1n2 [Compound 71, 4-(4,4-dioxido-2^3-(trifluoromethyl)-4-thia-3,6-diaza-2,5(2,6)-dipyridina-1(1,2)-benzenacyclotetradecaphane-6-yl)butanoic acid]",EC50,291 nM
"Cc1ccc2nc1-c1ccccc1CCCCCN(CCCC(=O)O)c1cccc(n1)S(=O)(=O)N2 [Compound 72, 4-(2^3-methyl-4,4-dioxido-4-thia-3,6-diaza-2,5(2,6)-dipyridina-1(1,2)-benzenacycloundecaphane-6-yl)butanoic acid]",Emax,396%
same,EC50,2430 nM
"O=CCCCN1CCCCCc2ccccc2-c2nc(ccc2C(F)(F)F)NS(=O)(=O)c2cccc1n2 [Compound 73, 4-(4,4-dioxido-2^3-(trifluoromethyl)-4-thia-3,6-diaza-2,5(2,6)-dipyridina-1(1,2)-benzenacycloundecaphane-6-yl)butanal]",Emax,764%
same,EC50,439 nM
"O=C(O)COCCN1CCCCCc2ccccc2-c2nc(ccc2C(F)(F)F)NS(=O)(=O)c2cccc1n2 [Compound 74, 2-(2-(4,4-dioxido-2^3-(trifluoromethyl)-4-thia-3,6-diaza-2,5(2,6)-dipyridina-1(1,2)-benzenacycloundecaphane-6-yl)ethoxy)acetic acid]",Emax,745%
same,EC50,1990 nM
"O=C(O)CCN1CCCCCCCCCc2ccccc2-c2nc(ccc2C(F)(F)F)NS(=O)(=O)c2cccc1n2 [Compound 75, 3-(4,4-dioxido-2^3-(trifluoromethyl)-4-thia-3,6-diaza-2,5(2,6)-dipyridina-1(1,2)-benzenacyclopentadecaphane-6-yl)propanoic acid]",EC50,417 nM
